The subject of test [1] is soybean seeds. The experiment in a line: Seed germination assay. In kind it is in vivo. Conditions: for germination in 24 hours: test compound 10^−7 M in DI-water, 24 hr in dark at room temperature, radicle emergence as indicator, five repeats of 20 seeds. How it is done:
Materials were all sterilized before use. An aqueous solution of the test compound (25 mL, 10^−7 M in DI-water) was prepared for a set of five repeat experiments. Five Petri dishes and 100 soybean seeds were used to test one compound. A piece of Whatman filter paper was used to cover the inner side of each Petri dish to allow uniform distribution of testing solution. Twenty soybean seeds were placed on the filter paper area of one Petri dish. 5 mL of the test compound solution was carefully poured in the Petri dish. Control experiments were set up the same way with 20 soybean seeds and 5 mL of DI-water per dish without any compounds. The lid was placed on the Petri dish and was sealed with Para-film. Five dishes with repeat experiments were stacked. One stack of dishes was wrapped twice with aluminum foil to prevent the seeds receiving any light. The stacks were transferred to an incubator maintained at room temperature and the seeds were germinated in dark. After 24 hr, the stacks were pulled out for measurement. The number of germinated seeds was counted and the percent of germination on each dish was calculated. Radicle emergence was used as the germination indicator. The dishes were placed unwrapped at room temperature for one day and the number of germinated seeds was counted to assure seeds were able to germinate and different germination yields were not caused by bad seed quality. Seeds showing above 90% of germination were considered normal. The standard deviation of five repeats was calculated. Test results with 10% or lower standard deviation was considered good. Compounds acting as plant performance enhancers should promote a significant increase in average percentage of germination compared to the control above the standard deviation.

The subject of test [2] is soybean seeds. The test is described as follows: Plant growth assay (radical length of germinating seed). In kind it is in vivo. Conditions: soybean seeds germinated 24 hr with 10^−7 M compound, then additional 40 hr open to light at room temperature. Here is the method: Plant growth assay Seeds germinated for 24 hr using the seed germination assay above were left open to light for another 40 hr. The radical length was measured and the percentage of germinating seed with radical length of greater than 1.5 cm was determined.

Turning to `CO[C@@H]1O[C@H](CO)[C@@H](O)[C@H](O)[C@H]1NC(=O)/C=C/c1cccc(C(F)(F)F)c1` [Example 4, (E)-N-((2R,3R,4R,5S,6R)-4,5-dihydroxy-6-(hydroxymethyl)-2-methoxytetrahydro-2H-pyran-3-yl)-3-(3-(trifluoromethyl)phenyl)acrylamide], in the test on soybean seeds [1], the “germination in 24 hours” value is recorded as 75%. For the same compound, the “germinating seed with radical length longer than 1.5 cm” value (“germinating seed” below) in the test with soybean seeds [2] is on record as 69%.

Turning to `CO[C@@H]1O[C@H](CO)[C@@H](O)[C@H](O)[C@H]1NC(=O)/C=C/c1ccc(C)cc1` [Example 2, (E)-N-((2R,3R,4R,5S,6R)-4,5-dihydroxy-6-(hydroxymethyl)-2-methoxytetrahydro-2H-pyran-3-yl)-3-(p-tolyl)acrylamide], in the test on soybean seeds [1], the “germination in 24 hours” value is 70%. In addition, the “germinating seed” value in the test with soybean seeds [2] came to 66%.

As to `CO[C@@H]1O[C@H](CO)[C@@H](O)[C@H](O)[C@H]1NC(=O)C#Cc1ccccc1` [Example 5, N-((2R,3R,4R,5S,6R)-4,5-dihydroxy-6-(hydroxymethyl)-2-methoxytetrahydro-2H-pyran-3-yl)-3-phenylpropiolamide], the “germination in 24 hours” value in the test on soybean seeds [1] is listed as 86%. Besides, the “germinating seed” value with soybean seeds [2] is 95%.

In the case of `CO[C@@H]1O[C@H](CO)[C@@H](O)[C@H](O)[C@H]1NC(=O)/C=C/C=C/c1ccccc1` [Example 1, (2E,4E)-N-((2R,3R,4R,5S,6R)-4,5-dihydroxy-6-(hydroxymethyl)-2-methoxytetrahydro-2H-pyran-3-yl)-5-phenylpenta-2,4-dienamide], in the test on soybean seeds [1], the “germination in 24 hours” value was found to be 75%. Besides, the “germinating seed” value in the test on soybean seeds [2] worked out at 69%.

Consider `CO[C@@H]1O[C@H](CO)[C@@H](O)[C@H](O)[C@H]1N` [(2R,3S,4R,5R,6R)-5-amino-2-(hydroxymethyl)-6-methoxytetrahydro-2H-pyran-3,4-diol, reference compound], for which the “efficacy for enhanced seed germination and radical growth (summary in words)” value in the test with soybean seeds [1] (conclusion from the germination and plant growth assays) is on record as “insignificant efficacy”. The “germination in 24 hours” value with soybean seeds [1] is listed as 53%. The “germinating seed” value with soybean seeds [2] is reported as 45%.

In the case of `CO[C@@H]1O[C@H](CO)[C@@H](O)[C@H](O)[C@H]1NC(=O)/C=C/c1cccc(C)c1` [Example 3, (E)-N-((2R,3R,4R,5S,6R)-4,5-dihydroxy-6-(hydroxymethyl)-2-methoxytetrahydro-2H-pyran-3-yl)-3-(m-tolyl)acrylamide], the “germination in 24 hours” value in the test with soybean seeds [1] was found to be 61%. The “germinating seed” value with soybean seeds [2] is reported as 56%.

The values are drawn from US20160007600A1, “SYNTHETIC LIPOCHITOOLIGOSACCHARIDE ANALOGS FOR ENHANCING PLANT PERFORMANCE” (E.I. DU PONT DE NEMOURS AND COMPANY, priority 2013, published 2016).
